In publication PMC3428502 (Brain research, 2012):
Entries after “also recorded” stand apart in the source; their conditions may differ.

Assays:
PC6-3 cells [1] = experiment: MTT assay of mitochondrial function; format: cell-based; details: for change of mitochondrial function (MTT), in words: 5, 10, 25, 50 μM; for mitochondrial dysfunction: 50 μM
[2] = biological target: T1, tyrosine hydroxylase (TH) (Rattus norvegicus, UniProt P04177); experiment: TH activity in whole dopaminergic PC6-3 cells; format: cell-based; details: for TH inhibition in PC6-3 cells: 2 h; for inhibition at 20 µM: read-out: TH inhibition in PC6-3 cells
BSA [3] = biological target: T2, BSA (Bos taurus, UniProt P02769); experiment: Relative protein reactivity with BSA; details: 100 μM, BSA 1 mg/mL, 4 h, 37°C, compared to DOPAL
PC6-3 cells [4] = experiment: Intracellular concentration in PC6-3 cells by HPLC; format: in vitro ADME, rat
BSA [5] = biological target: T2, BSA; details: compared to DOPAL; ref Rees et al., 2009; cited from earlier work
PC6-3 cells [6] = experiment: Flow cytometry with DHE for superoxide anion; format: cell-based, rat; details: 10 μM, 1 h incubation, vs control cells
[7] = biological target: T1, tyrosine hydroxylase (TH); details: 1.0 μM; modified from previously published results; ref Mexas et al., 2011; cited from earlier work
PC6-3 cells [8] = experiment: Flow cytometry with DCF-DA for hydrogen peroxide; format: cell-based, rat; details: 5 and 10 μM, 1 h, vs control cells
[9] = biological target: T1, tyrosine hydroxylase (TH); experiment: TH activity in PC6-3 cell lysate; format: biochemical; details: read-out: inhibition of L-DOPA production in cell lysate
[10] = 20 μM placed exogenously on PC6-3 cells

T1 sequence (P04177 whole entry): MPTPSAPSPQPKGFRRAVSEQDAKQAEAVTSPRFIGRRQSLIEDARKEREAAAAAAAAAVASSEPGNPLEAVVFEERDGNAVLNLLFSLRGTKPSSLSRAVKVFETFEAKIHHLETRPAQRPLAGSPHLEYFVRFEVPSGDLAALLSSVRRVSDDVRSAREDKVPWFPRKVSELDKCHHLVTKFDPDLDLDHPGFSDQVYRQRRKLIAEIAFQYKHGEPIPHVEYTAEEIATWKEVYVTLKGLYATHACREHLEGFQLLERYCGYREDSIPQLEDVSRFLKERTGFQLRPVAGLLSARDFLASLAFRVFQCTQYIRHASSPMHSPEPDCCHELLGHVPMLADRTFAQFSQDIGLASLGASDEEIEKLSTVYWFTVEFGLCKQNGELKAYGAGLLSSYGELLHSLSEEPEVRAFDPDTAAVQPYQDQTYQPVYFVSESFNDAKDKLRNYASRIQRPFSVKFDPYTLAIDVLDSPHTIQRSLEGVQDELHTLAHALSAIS
T2 sequence (P02769 25-607): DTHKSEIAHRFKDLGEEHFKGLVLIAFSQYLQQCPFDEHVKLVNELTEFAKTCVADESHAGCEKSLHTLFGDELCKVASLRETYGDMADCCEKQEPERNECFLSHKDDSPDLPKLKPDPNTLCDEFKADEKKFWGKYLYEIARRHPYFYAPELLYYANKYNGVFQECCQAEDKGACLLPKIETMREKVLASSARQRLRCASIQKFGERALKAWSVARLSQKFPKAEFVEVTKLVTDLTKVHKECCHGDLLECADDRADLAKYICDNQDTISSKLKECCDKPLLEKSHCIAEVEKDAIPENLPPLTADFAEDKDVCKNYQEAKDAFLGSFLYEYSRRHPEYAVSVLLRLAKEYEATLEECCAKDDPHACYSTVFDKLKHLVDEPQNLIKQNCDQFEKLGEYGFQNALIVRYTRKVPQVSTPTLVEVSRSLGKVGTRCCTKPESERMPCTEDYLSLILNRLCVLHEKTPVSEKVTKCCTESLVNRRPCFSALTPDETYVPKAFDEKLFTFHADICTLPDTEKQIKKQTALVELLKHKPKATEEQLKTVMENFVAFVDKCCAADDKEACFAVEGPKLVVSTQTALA

Compound | change of mitochondrial function (MTT), in words (PC6-3 cells [1]; 2 h, vs control cells) | intracellular concentration (PC6-3 cells [4]; [10]) | times less protein reactivity than DOPAL (BSA [5]) [times] | inhibition at 20 µM [2] [%] | mitochondrial dysfunction (PC6-3 cells [1]; 2 h, vs control cells) | inhibition at 20 µM [9] [%] | other results
N#CCc1ccc(O)c(O)c1 [DHPAN, 3,4-Dihydroxyphenylacetonitrile] | no significant loss of mitochondrial viability; also recorded: no changes to mitochondrial function; also recorded: no significant toxicity | – | – | – | – | – | TH inhibition in PC6-3 cells ([2]; 20 μM final concentration): no significant TH inhibition; Relative protein reactivity (NBT staining of BSA) (BSA [3]): no significant staining by NBT
COc1ccc(CC=O)cc1OC [DMPAL, 3,4-Dimethoxyphenylacetaldehyde] | no significant loss of mitochondrial viability; also recorded: no changes to mitochondrial function; also recorded: no significant toxicity | ~ 9 μM | 5 | ~40 | – | – | –
O=CCc1ccc(O)c(O)c1 [DOPAL, 3,4-dihydroxyphenylacetaldehyde, reference compound] | – | – | – | – | – | – | intracellular concentration (PC6-3 cells [4]; rat, 5 μM, pH 7.4): 4 to 5 µM; superoxide anion production (DHE) (PC6-3 cells [6]): significantly different from control cells; TH inhibition in cell lysate [7]: ~95%; TH inhibition in PC6-3 cells ([2]; 5 μM placed exogenously, intracellular 4–5 μM): ~ 60%; decrease of DA concentration in PC6-3 cells ([2]; DOPAL-treated cells vs control cells, data not shown): ~ 40%; hydrogen peroxide production (DCF-DA) (PC6-3 cells [8]): significantly less hydrogen peroxide than controls cells
O=CCC=O [MDA, Malondialdehyde, reference compound] | – | – | – | – | – | – | effect on TH activity ([2]; 5 μM, used to inhibit ALDH and AR, data not shown): does not inhibit or alter TH activity
COc1cc(CC=O)ccc1O [MOPAL, 3-methoxy-4-hydroxyphenylacetaldehyde] | some concentration-dependent dysfunction | – | 5 | ~50 | ~ 25% | ~50 | intracellular concentration (PC6-3 cells [4]; rat, 20 μM, pH 7.4): 9 to 12 µM
O=CCc1ccccc1 [PAL, phenylacetaldehyde] | some concentration-dependent dysfunction | 9 to 12 µM | 10 | ~50 | ~ 25% | ~50 | loss of mitochondrial viability (PC6-3 cells [1]; 10 μM, 2 h, vs control cells): ~ 15%; loss of mitochondrial viability (PC6-3 cells [1]; 25 μM, vs controls): ~ 15%
